Converted amounts (≈) assume the structure as drawn. Counter-ions that a name gives are not always drawn.
Key:
[1] = test system: Bacillus subtilis PCI 219; assay: In vitro antibacterial activity, MIC (standard strain); format: cell-based; conditions: PCI219; Bacillus subtilis PCI 219; 10^6 cells/ml; standard strain; read-out: MIC
[2] = test system: S. aureus Smith; assay: as above; format: cell-based, Staphylococcus aureus; conditions: Staphylococcus aureus; S. aureus Smith; 10^6 cells/ml; standard strain; read-out: MIC
[3] = test system: S. aureus IID 670 (Terajima); assay: as above; format: cell-based, Staphylococcus aureus; conditions: Staphylococcus aureus, IID670, S. aureus IID 670 (Terajima); 10^6 cells/ml; standard strain; read-out: MIC
[4] = test system: S. epidermidis IID 866; assay: as above; format: cell-based; conditions: Staphylococcus epidermidis, IID866, S. epidermidis IID 866; 10^6 cells/ml; standard strain; read-out: MIC
[5] = test system: S. pneumoniae IID 552; assay: as above; format: cell-based; conditions: Streptococcus pneumoniae, IID552; S. pneumoniae IID 552; 10^6 cells/ml; standard strain; read-out: MIC
[6] = test system: S. faecalis IID 682; assay: as above; format: cell-based; conditions: Enterococcus faecalis, IID682; S. faecalis IID 682; 10^6 cells/ml; standard strain; read-out: MIC
[7] = test system: Enterobacter cloacae IID 977; assay: as above; format: cell-based; conditions: Enterobacter cloacae, IID977, Enterobacter cloacae IID 977; 10^6 cells/ml; standard strain; read-out: MIC
[8] = test system: Klebsiella pneumoniae KY(GN)6445; assay: as above; format: cell-based; conditions: Klebsiella pneumoniae KY(GN)6445; 10^6 cells/ml; standard strain; read-out: MIC
[9] = test system: Salmonella entritidis IID 604; assay: as above; format: cell-based; conditions: IID604; Salmonella entritidis IID 604; 10^6 cells/ml; standard strain; read-out: MIC
[10] = test system: Shigella sonnei IID 969; assay: as above; format: cell-based; conditions: IID969, 10^6 cells/ml
Procedure: Experiment-1 In vitro antibacterial activity
The in vitro antibacterial activity against gram-positive and gram-negative bacteria has been investivated.
The minimum inhibitory concentration (MIC) was determined in accordance with the method recommended by Japan Society of Chemotherapy.

[11] = test system: Pseudomonas aeruginosa V-1; assay: as above; format: cell-based; conditions: V1; Pseudomonas aeruginosa V-1; 10^6 cells/ml; standard strain; read-out: MIC
[12] = test system: P. aeruginosa IID 1210; assay: as above; format: cell-based; conditions: Pseudomonas aeruginosa, IID1210; P. aeruginosa IID 1210; 10^6 cells/ml; standard strain; read-out: MIC
[13] = test system: Bacteroides fragilis GM 7000; assay: as above; format: cell-based; conditions: GM7000; Bacteroides fragilis GM 7000; 10^6 cells/ml; standard strain; read-out: MIC
[14] = test system: B. fragilis 25285; assay: as above; format: cell-based, Bacteroides fragilis; conditions: Bacteroides fragilis, 25285, B. fragilis 25285; 10^6 cells/ml; standard strain; read-out: MIC
[15] = test system: Fusobacterium varium KYA 8501; assay: as above; format: cell-based; conditions: Fusobacterium varium, KYA8501, Fusobacterium varium KYA 8501; 10^6 cells/ml; standard strain; read-out: MIC
[16] = test system: C. ramosum; assay: as above; format: cell-based; conditions: Thomasclavelia ramosa; C. ramosum; 10^6 cells/ml; standard strain; read-out: MIC
[17] = test system: S. pyogenes 3107; assay: In vitro antibacterial activity, MIC (clinical isolates); format: cell-based; conditions: Streptococcus pyogenes; S. pyogenes 3107; 10^6 cells/ml; clinical isolate; read-out: MIC
[18] = test system: S. pyogenes 4372; assay: as above; format: cell-based; conditions: Streptococcus pyogenes; S. pyogenes 4372; 10^6 cells/ml; clinical isolate; read-out: MIC
[19] = test system: S. agalactiae 4394; assay: as above; format: cell-based; conditions: Streptococcus agalactiae; S. agalactiae 4394; 10^6 cells/ml; clinical isolate; read-out: MIC
[20] = test system: S. agalactiae 4468; assay: as above; format: cell-based; conditions: Streptococcus agalactiae; S. agalactiae 4468; 10^6 cells/ml; clinical isolate; read-out: MIC
[21] = test system: S. faecalis 49; assay: as above; format: cell-based; conditions: Enterococcus faecalis; S. faecalis 49; 10^6 cells/ml; clinical isolate; read-out: MIC
[22] = test system: S. faecalis 214; assay: as above; format: cell-based; conditions: Enterococcus faecalis; S. faecalis 214; 10^6 cells/ml; clinical isolate; read-out: MIC
[23] = test system: S. faecalis 401; assay: as above; format: cell-based; conditions: Enterococcus faecalis; S. faecalis 401; 10^6 cells/ml; clinical isolate; read-out: MIC
[24] = test system: E. coli ML4707; assay: In vivo antibacterial activity against systemic infection in mice; parameters: species or system mice (ICR-S); conditions: for ED50: Escherichia coli, ML4707, mice (ICR-S), oral, an hour after intraperitoneal infection, challenge dose 2.7 x 10^6 ~ 8.8 x 10^6 cfu/mouse, read-out: ED50 E. coli ML4707
Procedure: Experiment-2 In vivo antibacterial activity against systemic infection in mice (ICR-S)
The infections were produced by intraperitoneal injection of a suspension of the bacterial culture corresponding to the germ studied. The products were administered orally at an hour after the infection.

[25] = test system: C. difficile I-E; assay: In vitro antibacterial activity, MIC (standard strain); format: cell-based; conditions: Clostridioides difficile; C. difficile I-E; 10^6 cells/ml; standard strain; read-out: MIC

SMILES	MIC [1]	MIC [2]	MIC [3]	MIC [4]	MIC [5]	MIC [6]	MIC [7]	MIC [8]	MIC [9]	MIC [10]	MIC [11]	MIC [12]	MIC [13]	MIC [14]	MIC [15]	MIC [16]	MIC [17]	MIC [18]	MIC [19]	MIC [20]	also measured
CN(C)CC1CCN(c2c(F)cc3c(=O)c(C(=O)O)cn(C4CC4)c3c2F)C1 (stereo not shown) [Example 21, 1-Cyclopropyl-6,8-difluoro-1,4-dihydro-7-(3-dimethylaminomethyl-1-pyrrolidinyl)-4-oxo-3-quinolinecarboxylic acid]	0.05 µg/mL (≈ 0.128 µM)	0.05 µg/mL (≈ 0.128 µM)	0.05 µg/mL (≈ 0.128 µM)	0.05 µg/mL (≈ 0.128 µM)	0.2 µg/mL (≈ 0.511 µM)	0.2 µg/mL (≈ 0.511 µM)	0.2 µg/mL (≈ 0.511 µM)	0.05 µg/mL (≈ 0.128 µM)	0.1 µg/mL (≈ 0.255 µM)	0.05 µg/mL (≈ 0.128 µM)	0.39 µg/mL (≈ 0.996 µM)	3.13 µg/mL (≈ 8 µM)	0.39 µg/mL (≈ 0.996 µM)	0.2 µg/mL (≈ 0.511 µM)	3.13 µg/mL (≈ 8 µM)	0.78 µg/mL (≈ 1.99 µM)	0.1 µg/mL (≈ 0.255 µM)	0.2 µg/mL (≈ 0.511 µM)	0.2 µg/mL (≈ 0.511 µM)	0.2 µg/mL (≈ 0.511 µM)	MIC [21]: 0.2 µg/mL (≈ 0.511 µM); MIC [22]: 0.2 µg/mL (≈ 0.511 µM); MIC [23]: 0.2 µg/mL (≈ 0.511 µM); ED50 [24]: 1.2 mg/kg; activity against gram-negative bacterial infections compared with the reference compounds ([24]; systemic infection in mice, result in words): greater activity against gram-negative bacterial infections than the reference compounds
CCCNCC1CCN(c2c(F)cc3c(=O)c(C(=O)O)cn(C4CC4)c3c2F)C1 (stereo not drawn) [Example 10, 1-Cyclopropyl-6,8-difluoro-1,4-dihydro-4-oxo-7-(3-n-propylaminomethyl-l-pyrrolidinyl)-3-quinolinecarboxylic acid hydrochloride]	0.0125 µg/mL	0.05 µg/mL	0.05 µg/mL	0.1 µg/mL	0.39 µg/mL	0.39 µg/mL	0.2 µg/mL	0.05 µg/mL	0.1 µg/mL	0.025 µg/mL	1.56 µg/mL	3.13 µg/mL	1.56 µg/mL	0.78 µg/mL	6.25 µg/mL	1.56 µg/mL	0.2 µg/mL	0.39 µg/mL	0.78 µg/mL	0.39 µg/mL	MIC [25]: 6.25 µg/mL; MIC [21]: 0.39 µg/mL; MIC [22]: 0.39 µg/mL; MIC [23]: 0.78 µg/mL
CC(C)NCC1CCN(c2c(F)cc3c(=O)c(C(=O)O)cn(C4CC4)c3c2F)C1.Cl (stereo not shown) [Example 11, 1-Cyclopropyl-6,8-difluoro-1,4-dihydro-7-(3-isopropylaminomethyl-1-pyrrolidinyl)-4-oxo-3-quinolinecarboxylic acid hydrochloride]	0.025 µg/mL	0.05 µg/mL	0.05 µg/mL	0.05 µg/mL	0.39 µg/mL	0.39 µg/mL	0.39 µg/mL	0.1 µg/mL	0.2 µg/mL	0.05 µg/mL	1.56 µg/mL	3.13 µg/mL	1.56 µg/mL	0.78 µg/mL	3.13 µg/mL	0.78 µg/mL	0.2 µg/mL	0.2 µg/mL	0.39 µg/mL	0.2 µg/mL	MIC [25]: 3.13 µg/mL; MIC [21]: 0.2 µg/mL; MIC [22]: 0.39 µg/mL; MIC [23]: 0.39 µg/mL
CN(C)CC1CCN(c2c(F)cc3c(=O)c(C(=O)O)cn(C4CC4)c3c2Cl)C1 (stereo not drawn) [Example 20, 8-Chloro-1-cyclopropyl-6-fluoro-1,4-dihydro-7-(3-dimethylaminomethyl-l-pyrrolidinyl)-4-oxo-3-quinolinecarboxylic acid]	0.025 µg/mL (≈ 0.0613 µM)	0.025 µg/mL (≈ 0.0613 µM)	0.05 µg/mL (≈ 0.123 µM)	0.05 µg/mL (≈ 0.123 µM)	0.05 µg/mL (≈ 0.123 µM)	0.1 µg/mL (≈ 0.245 µM)	0.1 µg/mL (≈ 0.245 µM)	0.05 µg/mL (≈ 0.123 µM)	0.1 µg/mL (≈ 0.245 µM)	0.05 µg/mL (≈ 0.123 µM)	0.39 µg/mL (≈ 0.956 µM)	1.56 µg/mL (≈ 3.82 µM)	0.1 µg/mL (≈ 0.245 µM)	≤ 0.05 µg/mL	0.78 µg/mL (≈ 1.91 µM)	0.39 µg/mL (≈ 0.956 µM)	0.05 µg/mL (≈ 0.123 µM)	0.1 µg/mL (≈ 0.245 µM)	0.2 µg/mL (≈ 0.49 µM)	0.1 µg/mL (≈ 0.245 µM)	MIC [21]: 0.1 µg/mL (≈ 0.245 µM); MIC [22]: 0.1 µg/mL (≈ 0.245 µM); MIC [23]: 0.1 µg/mL (≈ 0.245 µM); ED50 [24]: 2.1 mg/kg
